Experimental data from patent US6893821B2, “Agents that modulate DNA-PK activity and methods of use thereof” (The Regents of the University of California, priority 2000, dated 2005).
“Also recorded” adds a separate entry of the source.

Assays:
[1] = molecular target: T1, Ku antigen (Ku70/Ku80 heterodimer) (Mus musculus, UniProt P23475+P27641); assay: EMSA inhibition study: cold ODN vs [32P]-labeled ds-ISS-ODN binding to Ku (affinity column fraction 20); conditions: for displacement of the interaction of [32P]-labeled ds-ISS-ODN with Ku: unlabeled ODN 0.1, 0.2 and 0.4 μg, 10 μg of fraction 20
T1 construct: from tissue; host or cells: mouse liver (BALB/c)
T1 sequence (P23475 2-608 limits assumed): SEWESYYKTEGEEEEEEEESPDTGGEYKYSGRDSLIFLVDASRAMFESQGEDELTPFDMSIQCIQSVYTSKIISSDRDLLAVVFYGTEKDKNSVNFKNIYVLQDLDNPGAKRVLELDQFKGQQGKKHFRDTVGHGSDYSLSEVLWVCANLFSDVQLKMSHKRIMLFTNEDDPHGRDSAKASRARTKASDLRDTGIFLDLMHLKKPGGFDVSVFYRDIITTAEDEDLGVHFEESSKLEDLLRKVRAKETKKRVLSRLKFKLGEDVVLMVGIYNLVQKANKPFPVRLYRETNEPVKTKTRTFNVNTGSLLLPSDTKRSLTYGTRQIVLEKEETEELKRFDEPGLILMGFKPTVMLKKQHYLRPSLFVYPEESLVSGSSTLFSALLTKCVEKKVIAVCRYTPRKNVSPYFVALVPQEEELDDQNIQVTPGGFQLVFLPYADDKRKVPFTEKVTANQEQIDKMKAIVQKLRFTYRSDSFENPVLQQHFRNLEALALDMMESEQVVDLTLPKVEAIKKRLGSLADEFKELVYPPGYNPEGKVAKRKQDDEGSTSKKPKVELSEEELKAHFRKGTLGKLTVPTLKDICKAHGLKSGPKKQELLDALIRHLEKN
T1 sequence (P27641 whole entry): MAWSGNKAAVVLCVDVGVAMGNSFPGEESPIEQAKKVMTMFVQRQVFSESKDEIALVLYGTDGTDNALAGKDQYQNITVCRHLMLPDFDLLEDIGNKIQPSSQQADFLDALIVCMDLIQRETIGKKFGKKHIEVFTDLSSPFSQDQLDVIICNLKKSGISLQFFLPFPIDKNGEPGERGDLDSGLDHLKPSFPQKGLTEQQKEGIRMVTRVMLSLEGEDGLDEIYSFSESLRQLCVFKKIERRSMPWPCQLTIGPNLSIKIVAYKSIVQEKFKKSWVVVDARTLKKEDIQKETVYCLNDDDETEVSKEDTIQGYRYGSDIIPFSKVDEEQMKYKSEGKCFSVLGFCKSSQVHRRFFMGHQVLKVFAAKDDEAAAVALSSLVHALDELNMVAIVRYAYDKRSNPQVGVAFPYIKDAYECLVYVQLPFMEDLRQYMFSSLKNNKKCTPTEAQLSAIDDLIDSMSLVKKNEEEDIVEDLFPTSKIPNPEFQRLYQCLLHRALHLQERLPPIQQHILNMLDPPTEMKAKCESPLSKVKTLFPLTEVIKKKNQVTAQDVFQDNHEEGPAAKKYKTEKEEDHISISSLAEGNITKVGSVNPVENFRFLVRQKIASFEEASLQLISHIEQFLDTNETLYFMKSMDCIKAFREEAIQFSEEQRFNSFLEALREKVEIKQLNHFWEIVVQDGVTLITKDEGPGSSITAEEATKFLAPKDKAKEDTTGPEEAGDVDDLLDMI
Method: Purification of the ISS binding protein was accomplished by sequential ion exchange, heparin and ISS-ODN affinity chromatography, as follows. Due to the relative small tissue weight per spleen, liver lysate was used after confirming its reactivity to in vivo ISS injection, as described above. Crude liver extracts from 220 mice (BALB/c, Jackson Lab., Bar Harbour, Me.) or 15 New Zealand White rabbits (Simunek, Vista, Calif.) were prepared in homogenization buffer (20 mM HEPES, pH 7.6, 250 mM KCl, 0.1 mM EDTA, 0.5 mM EGTA, 20% glycerol) with 250 mM KCl and protease and phosphatase inhibitors and then centrifuged at 100,000×g for 1.5 hours at 4° C. The supernatant (400 ml) was filtered and loaded onto a Porous 20 QE column (17 ml, Pharmacia). Two μl (10 μg) of each fraction were used in a gel retardation assay to identify the location of proteins containing DNA binding activity using [^32P]-labeled ds-ISS-ODN as a probe. Fractions containing ISS-ODN binding activity were pooled (450 ml), buffered exchanged to low salt (50 mM KCl) and loaded onto a Heparin column (2 ml). The active fractions were subsequently loaded onto a 2 ml ds-ISS-ODN affinity column [CNBr-activated Sepharose 4B (Pharmacia) coupled to 320 μg of ds-ISS-ODNs with the sequence 5′-[…]-3′; SEQ ID NO: 21]. The column was washed with 8 ml of homogenization buffer containing 50 mM KCl and the bound proteins were eluted with a 20 ml linear gradient of 50 mM to 1.55 M KCl. One-ml fractions were collected and 2 μl of each were used to test for DNA binding activity. The active fractions were concentrated, separated by SDS-PAGE and stained with Coomassie Blue. The appearance of two bands with estimated molecular weights of 70 KDa and 80 KDa correlated with the DNA binding activity. Sequence analysis (Harvard Microsequencing Facility) of peptides derived from the two bands identified Ku70 and Ku80, respectively.
Mouse liver extracts were purified through anion (QE), heparin and ISS-based affinity chromatography, as described above. Two μl of each fraction (10 μg) were incubated with [^32 P]-labeled ds-ISS-ODN at 4° C. for 30 minutes. The samples were separated on a 5% acrylamide gel and the protein-DNA complexes were detected by autoradiography. […] The active fractions were separated by sodium dodecyl sulfate-polyacrylamide gel electrophoresis (SDS-PAGE), stained with Coomassie blue and micro-sequenced.
To verify the binding specificity of the Ku protein to ISS-ODN, inhibition studies were performed using cold ss or ds ISS or mutated (M, i.e., control) ODNs. Ten μg of fraction 20 from the affinity column were incubated with [^32P]-labeled ISS-ODN in the presence of unlabeled (0.1, 0.2 and 0.4 μg, respectively) ss-ISS-ODN (lanes 3-5), ds-ISS-ODN (lanes 7-9), ss-M-ODN (lanes 11-13) or ds-M-ODN (lanes 15-17).

IκB kinase (IKK) complex = assay: IKK kinase assay on IKK complex immunoprecipitated from treated BMDM (IκBα N-terminus substrate); type: cell-based, mice
Method: Kinase assays and immunoblotting were performed according to Li et al. ((1999) J. Exp. Med. 189:1839-1845). Briefly, BMDM were treated with ISS-ODN (5 μg/ml), M-ODN (5 μg/ml) on ps and po backbones as indicated, LPS-free bacterial DNA or methylated bacterial DNA (5 μg/ml), LPS-free calf thymus DNA (5 μg/ml), LPS (10 μg/ml) or TNFα (10 ng/ml) for the indicated time periods. Cell lysates were prepared and normalized by immunoblotting (IB) with anti-IKKα polyclonal antibodies (Santa Cruz, Santa Cruz Biotech Inc., Calif.), anti-IKKβ polyclonal antbodies (Santa Cruz) or anti-DNA-PKcs monoclonal antibodies (NeoMarker, Calif.). IκB kinase (IKK) complex or DNA-PK complex from 100 μg of the lysates were immunoprecipitated by anti-IKKα or by anti-DNA-PKcs antibodies. The kinase activities (KA) were determined by a kinase assay using the N-terminus of IκBα (for IKK) or the N-terminus of p53 (for DNA-PK) as a substrate as previously described. Wang et al. (1992) Proc. Natl. Acad. Sci. USA 89:4231-4235; Li et al.(1999), supra; and Hammarsten et al. (2000) J. Biol. Chem. 275:1541-1545.

[2] = test system: IL-6, IL-12 message in liver; assay: RT-PCR for IL-6 and IL-12 message in livers of mice injected i.v. with ODN; type: in vivo; conditions: mice i.v. 200 μl (1 μg/μl in PBS) of ss or ds ODN; 2.5 hours
[3] = test system: bone marrow derived macrophages (BMDM); assay: IL-6 and IL-12 levels in BMDM culture supernatants by ELISA; type: cell-based, mice; conditions: BMDM
Method: Ku70^−/− and Ku80^−/− mice and their wild-type (wt) control on the 129 genetic background were generated by Dr. G. Li and bred at Memorial Sloan-Kettering Cancer Center (MSKCC), New York, N.Y. BMDM from wt, Ku70^−/− and Ku80^−/− mice (MSKCC) were prepared as was previously published (Martin-Orozco et al. (1999) Int. Immunol. 11:1111), and maintained in DMEM with 10% FBS, antibiotics and 20% L-cell medium and cultured for about 10 days to allow them to mature. BMDM were seeded (2.5×10^5/well in triplicate) on 96-well plates and treated with LPS (10 μg/ml), ISS-ODN (5 μg/ml) or M-ODN (5 μg/ml).
BMDM (2.5×10^5/well) from wt, or Ku70^−/− and Ku80^−/− mice were treated with LPS (1 μg/ml), ISS-ODN (5 μg/ml) or M-ODN (5 μg/ml) for 24 hours. IL-6 (A) or IL-12 (B) levels in the supernatants were determined by ELISA. Results are means±S.D, of 5 separate experiments for wt and Ku70^−/− and 3 separate experiments for Ku80^−/− mice. (C) BMDM were incubated with LPS (10 μg/ml) or ISS-ODN (5 μg/ml) for 6.5 hours. Total RNA was isolated and analyzed for the presence of IL-6, IL-12 and GAPDH messages by a Northern blot assay, as described in Example 1. Results are means±S.D. of 5 separate experiments for wt and Ku70^−/− and 3 separate experiments for Ku80^−/− mice.
DNA-PKcs^−/− and their wt control mice on the 129 genetic background were generated by Dr. G. C. Li and bred at Memorial Sloan-Kettering Cancer Center, New York, N.Y. IKKβ^−/− Tnfr1^−/− mice were generated by Drs. Z-W Li and Karin M. ATM^−/− mice on the C57BL/6 background were generated and bred by Dr. Y. Xu (UCSD) as was previously described (Xu et al.(1996) Genes Dev. 10:2411-2422) while their wild-type (wt) control were purchased from Jackson Laboratories (Bar Harbor, Me.). BMDMs from wt, DNA-PKcs^−/− mice, IKKβ^−/− Tnfr1^−/− and ATM^−/− mice were prepared as was previously published (Martin-Orozco et al. (1999) Intl. Immunol. 11:1111-1118), maintained in DMEM with 10% FBS, antibiotics and 20% L-cell medium and cultured for 7-10 days to allow them to mature. Prior to use BMDM were seeded (2.5×10^5/well in triplicate) in 96-well plates and than treated with LPS (1 μg/ml), ISS-ODN (5 μg/ml) or M-ODN (5 μg/ml), po-ISS-ODN (10 μg/ml) or po-ds-ISS-ODN (10 μg/ml), LPS-free, ultra pure bacterial DNA (E. coli, Sigma) (15 μg/ml) or methylated bacterial DNA or LPS-free, ultra pure calf thymus DNA (Sigma) (15 μg/ml). Methylation of bacterial DNA was performed by SssI methylase (Biolab, Boston, Mass.) (15 μg/ml) following manufacturer's instruction. Where indicated the PI3K inhibitor wortmannin (Wm), at various concentrations, was added to ISS-ODN or LPS stimulated BMDMs. After 24 hours in culture, the supernatants were collected and assayed for IL-6 and IL-12 levels by ELISA kits (PharMingen, San Diego, Calif.).

DNA-PK = molecular target: T2, DNA-PK (Homo sapiens, UniProt P12956+P13010+P78527); assay: In vitro DNA-PK phosphorylation assay (affinity-purified DNA-PK, GST-p53 (1-70) substrate); type: biochemical; conditions: 30° C., 30 minutes; ps-ss ODNs 0-1, po-ISS-ODN 20-100, po-ds-ISS-ODN 0-10, genomic DNAs 1-5 ng/reaction
T2 construct: purchased Promega
Method: The in vitro DNA-PK phosphorylation assay was performed according to Hammarsten et al. (2000), supra, with modification. Briefly, affinity-purified DNA-PK (Promega, Mo.) was incubated with various DNA preparations (described below), 0.5 μg of GST-p53 (1-70) and 3.3 μCi of γ-^32p-ATP in a 20 μl reaction buffer (10 mM Tris-Cl, 5 mM MgCl2, 0.3 mM EDTA and 10 μM ATP) at 30° C. for 30 minutes. The reaction was stopped by addition of 4× loading buffer. The samples were boiled, loaded on 9% SDS-PAGE, transferred onto a PVDF membrane and visualized by autoradiography.
The ODNs (ps-ss) used include an ISS-ODN with an active CpG motif (AACGTT), a methylated ISS-ODN at the ^5C of the CpG dinucleotide (AA*CGTT) and various control ODNs. These ODNs were incubated at concentrations of 0, 0.1, 0.3, or 1 ng/reaction. The po-ISS-ODN was incubated at concentration of 20, 50 or 100 ng/reaction. The po-ds-ISS-ODN was incubated at concentration of 0, 0.5, 1, 2, 5 or 10 ng/reaction. The bacterial or calf thymus DNAs were each incubated at concentration of 1, 2 or 5 ng/reaction. Electrophoretic gel mobility shift assay (EMSA) was performed as previously described. Chu et al. (1999) Immunity 11:721-731; and Li et al., 1999, supra). In vitro IKK kinase assays were performed using purified IKK derived from Sf9 insect cell lysates as was previously described. Zandi et al. (1998) Science 281:1360-1363.

## 5′-TGACTGTGAACGTTCGAGATGA-3′ [ds-ISS-ODN]
[1]
  displacement of the interaction of [32P]-labeled ds-ISS-ODN with Ku: displaced the interaction

## TNFα [reference compound]
IκB kinase (IKK) complex; DNA-PKcs-/- BMDM as compared to wt
  IKK activation: fully responsive

## 5′-TGACTGTGAAGGTTAGAGATGA-3′ [M-ODN, reference compound]
IκB kinase (IKK) complex; wt BMDM
  IKK activation: little increase in IKK activity
IκB kinase (IKK) complex; wt BMDM (FIG. 5B)
  IKK activation, concentration series: little IKK activation
[2]
  IL-6 and IL-12 message in liver (RT-PCR): did not display any immune stimulation; also recorded: lack of induction
[1]
  interaction of Ku with ODN: lack of interaction

## O=c1cc(N2CCOCC2)oc2c(-c3ccccc3)cccc12 [Ly, Ly294002, reference compound]
[3]
  inhibition of LPS-induced secretion of IL-6 and IL-12: did not inhibit

## 5′-TGACTGTGAACCTTAGAGATGA-3′ [ds-M-ODN, reference compound]
[1]
  displacement of the interaction of [32P]-labeled ds-ISS-ODN with Ku: did not have any significant effect

## 5′-TGACTGTGAA*CGTTAGAGATGA-3′ (DNA TGACTGTGAACGTTAGAGATGA; 5-methylcytosine, chemistry not fully specified) [Methylated ISS-ODN, *C denotes 5-methyl C, reference compound]
DNA-PK
  DNA-PK activity in vitro (phosphorylation of the N-terminal portion of p53): weaker DNA-PK activators than their unmethylated counterparts

## COC[C@H]1OC(=O)c2coc3c2[C@@]1(C)C1=C(C3=O)[C@@H]2CCC(=O)[C@@]2(C)C[C@H]1OC(C)=O [Wm, wortmannin, reference compound]
[3]
  inhibition of LPS-induced secretion of IL-6 and IL-12: did not inhibit
IκB kinase (IKK) complex; Wm at 1000 nM
  effect on IKK activation by TNFα: no effect
